Measurements: ChEMBL document CHEMBL1123338, “Synthesis and structure-activity relationship studies of a series of 5-aryl-4,6-dithianonanedioic acids and related compounds: a novel class of leukotriene antagonists” (J Med Chem, 1986)

Legend:
[1] = tested on: Cysteinyl leukotriene receptor (Cavia porcellus); experiment: In vitro ability to antagonize a leukotriene D4 induced contraction of guinea pig trachea.
[2] = molecular target: Cysteinyl leukotriene receptor (Cavia porcellus); experiment: Compound is evaluated for its ability to inhibit [3H]LTD4 binding to Cysteinyl leukotriene D4 receptor in guinea pig lung membranes

Row | Compound | -Log KB [1] | Ki [2]
1 | CCCCc1ccccc1C(SCCC(=O)O)SCCC(=O)O |  | > 20000 nM
2 | CCCCCCCCC#CC(SCCC(=O)O)SCCC(=O)O | 5 | 
3 | CCOCCOCCOCCOc1ccccc1C(SCCC(=O)O)SCCC(=O)O |  | > 20000 nM
4 | CCCCCCCCCCCOc1ccc(O)cc1C(SCCC(=O)O)SCCC(=O)O | 6 | 156 nM
5 | CCCCCCCCCOc1ccccc1C(SCCC(=O)O)SCCC(=O)O | 5.8 | 4094 nM
6 | CCCCC/C=C/C/C=C/COc1cccc(C(SCCC(=O)O)SCCC(=O)O)c1 | 6.2 | 187 nM
7 | CCCCc1ccc(CCCCc2ccccc2C(SCCC(=O)O)SCCC(=O)O)cc1 | 5.6 | 4228 nM
8 | O=C(O)CCSC(SCCC(=O)O)c1ccccc1OCCCCCCc1ccccc1 | 5.3 | 11526 nM
9 | CCCCC/C=C/C/C=C/COc1ccccc1C(SCCC(=O)O)SCCC(=O)O | 6 | 1002 nM
10 | CCCCCCCCCCC#CC(SCCC(=O)O)SCCC(=O)O | 6.1 | 
11 | CCCCCCCCCCC#CC(SCCCC(=O)O)SCCCC(=O)O | 5.6 | 
12 | CCCCCCCCCCC[C@@H]1CC(SCCC(=O)O)(SCCC(=O)O)c2ccccc21 |  | 2092 nM
13 | CCCCCCCCCCC#CC(SCC(=O)O)SCC(=O)O | 5.3 | 
14 | CCCCCCCCCCc1ccc(C(SCCC(=O)O)SCCC(=O)O)cc1 |  | 7565 nM
15 | O=C(O)CCSC(SCCC(=O)O)c1ccccc1OCCCCCCCCCO |  | > 20000 nM
16 | CCCCCCCCCCCOc1ccc(C(SCCC(=O)O)SCCC(=O)O)cc1 |  | > 20000 nM
17 | CCCc1c(OCCCCCOc2ccccc2C(SCCC(=O)O)SCCC(=O)O)ccc(C(C)=O)c1O | 6.6 | 3149 nM
18 | O=C(O)CCSC(SCCC(=O)O)c1cccc(CCCCCCCCc2ccccc2)c1 | 6 | 430 nM
19 | CCCCCCCCCCCOc1ccc(OC)cc1C(SCCC(=O)O)SCCC(=O)O | 5.9 | 579 nM
20 | CCCCCCCCCCCOc1cccc(C(SCCC(=O)O)SCCC(=O)O)c1 | 6.1 | 78 nM
21 | CCCCCCCCCCCCC#CC(SCCC(=O)O)SCCC(=O)O | 5.7 | 
22 | O=C(O)CCSC(SCCC(=O)O)c1ccccc1CCCCCCCCC1CCCCC1 | 5.5 | 1958 nM
23 | CCCCCCCCCCCOc1ccc([N+](=O)[O-])cc1C(SCCC(=O)O)SCCC(=O)O | 6.1 | 303 nM
24 | O=C(O)CCSC(SCCC(=O)O)c1ccccc1OCCCC1CCCCC1 |  | 1009 nM
25 | CCCCCCCCCOc1cccc(C(SCCC(=O)O)SCCC(=O)O)c1 | 6 | 624 nM
26 | CCCCCCCCCCCOc1ccc(Br)cc1C(SCCC(=O)O)SCCC(=O)O | 6 | 624 nM
27 | O=C(O)CCSC(SCCC(=O)O)c1cc(C(F)(F)F)ccc1CCCCCCCCc1ccccc1 | 7 | 476 nM
28 | CCCCCCCCCCC[C@@H]1CCC(SCCC(=O)O)(SCCC(=O)O)c2ccccc21 |  | > 20000 nM

The next lines start with the values.

Row | -Log KB [1] | Ki [2] | Compound
29 | 6.8 | 141 nM | C#CCCCCCCCCCCc1ccccc1C(SCCC(=O)O)SCCC(=O)O
30 |  | 17578 nM | CCCCCCCCCCCCc1ccccc1C1S[C@H](C(=O)O)[C@H](C(=O)O)S1 (stereo in doubt; 61)
31 |  | 1246 nM | CCCCCCCCCCCCCCc1ccccc1C(SCCC(=O)O)SCCC(=O)O
32 | 6 | 445 nM | CCCCCCCCCCCCc1ccccc1C(SCCC(=O)O)SCCC(=O)O
33 | 6 | 646 nM | CCCCCCCCCCCSc1ccccc1C(SCCC(=O)O)SCCC(=O)O
34 | 5.2 | 5674 nM | CCCCCCCCc1ccccc1C(SCCC(=O)O)SCCC(=O)O
35 |  | > 20000 nM | CCCCCCCCCCCCCOc1ccc(C(SCCC(=O)O)SCCC(=O)O)cc1
36 | 6.5 | 1180 nM | CCCCCCCCCCc1ccccc1C(SCCC(=O)O)SCCC(=O)O
37 | 5.2 |  | CCCCCCCCCCCCC(SCCC(=O)O)SCCC(=O)O
38 |  | 1380 nM | CCCCCCCCCC/C=C\c1ccccc1C(SCCC(=O)O)SCCC(=O)O
39 | 6.4 | 287 nM | CCCCCCCCCCCOc1ccccc1C(SCCC(=O)O)SCCC(=O)O
40 |  | 530 nM | CCCCCCCCCCCCCOc1cccc(C(SCCC(=O)O)SCCC(=O)O)c1
41 | 5.9 | 2515 nM | CCCCCCCCCCC#Cc1ccccc1C(SCCC(=O)O)SCCC(=O)O
42 | 5.6 | > 20000 nM | CCCCCCCCCCCOc1ccccc1C(C)(SCCC(=O)O)SCCC(=O)O
43 |  | 934 nM | CCCCCCCCCCCCc1ccccc1C(SCCCC(=O)O)SCCCC(=O)O
44 |  | 2337 nM | CCCCCCCCCCCCc1ccccc1C(CCCC(=O)O)CCCC(=O)O
45 | 5.9 | 846 nM | CCCCCCCCCCCCc1ccccc1C(SCC(=O)O)SCC(=O)O
46 |  | 3672 nM | CCCCCCCCCCCCc1cccc(C)c1C(SCCC(=O)O)SCCC(=O)O
47 | 6.2 | 147 nM | O=C(O)CCSC(SCCC(=O)O)c1ccccc1CCCCCCCCCCCC(F)(F)F
48 | 5.8 | 491 nM | CCCCCCCCCC/C=C/c1ccccc1C(SCCC(=O)O)SCCC(=O)O
49 |  | 401 nM | CCCCCCCCCCCCc1ccccc1C1S[C@@H](C(=O)O)[C@H](C(=O)O)S1
50 | 5.8 | 423 nM | CCCCCCCCCCCCc1ccccc1C(SCCC(=O)O)[S+]([O-])CCC(=O)O (configuration not stated)
